# Read-outs that look alike come from different tables or passages of the source.
# Tests used:
# BoCell™ model cell line = type: cell-based; details: for increase in BoCell™ Assay sensitivity: Figure 1, 24 hr pre-treatment with drug, then BoNT/A containing drug for an additional 24 hr, YFP/CFP emission ratio
# [1] = system: BoCell™ modified neuroblastoma cells; type: cell-based
# neuroblastoma cells = details: pretreatment of cells; 1990 JBC paper; cited from earlier work
compound,measurement,setting,value
"CC1CNCCN1S(=O)(=O)c1cccc2cnccc12.Cl.Cl (centres unmarked) [H7, 1-(5-isoquinolinylsulfonyl)-2-methylpiperazine dichloride]",increase in BoCell™ Assay sensitivity,BoCell™ model cell line,cause an increase in BoCell™ Assay sensitivity
same,"H7 effect on assay sensitivity, dose dependence","BoCell™ model cell line; Figure 2A, 24 hr pre-treatment, then BoNT/A with H7 for 24 hr",dose dependent
same,increase in sensitivity with multiple H7 lots,"BoCell™ model cell line; Figure 5, 0.75 mM H7 from three independent manufacturers, 24 hrs pre-incubation, then BoNT/A 24 hrs",all cause an increase in sensitivity
same,sensitivity of cells to BoNT/A treatment as measured by SNAP-25 reporter cleavage,BoCell™ model cell line; pretreatment of cells with H7,significantly increased
same,H7 concentration giving maximal effects,[1],ImM
same,neurite length and neurite number per cells,[1],rapid increases in both neurite length and neurite number per cells
same,reversibility of the phenotypic change,[1],"could be ""rescued"" by removal of the H7"
same,time and dose dependence of the H7 effect,[1],both time and dose-dependent
same,cell viability,BoCells,does not affect cell viability
"CCCC(=O)Nc1ncnc2c1ncn2[C@@H]1O[C@@H]2COP(=O)(O)O[C@H]2[C@H]1OC(=O)CCC [dibutyryl-cAMP, dibutyryl-cyclic AMP]",increase in BoCell™ Assay sensitivity,BoCell™ model cell line,increased sensitivity was not seen
same,increase in BoCell™ Assay sensitivity,BoCell™ model cell line; listed as db-cAMP,not
CC(C)Cn1c(=O)n(C)c(=O)c2[nH]cnc21 [IBMX],increase in BoCell™ Assay sensitivity,BoCell™ model cell line,not and increased sensitivity was not seen
Calphostin C,increase in BoCell™ Assay sensitivity,BoCell™ model cell line,increased sensitivity was not seen
same,increase in BoCell™ Assay sensitivity,BoCell™ model cell line; listed as calphostin,not
N=C(N)NCCNS(=O)(=O)c1cccc2cnccc12 [HA1004],morphologic changes in neuroblastoma cells,neuroblastoma cells,failed to induce morphologic changes
Nc1ncnc2c1nc(Br)n2[C@@H]1O[C@@H]2COP(=O)(O)O[C@H]2[C@H]1O [8-Bromoadenosine-cAMP],increase in BoCell™ Assay sensitivity,BoCell™ model cell line,increased sensitivity was not seen
same,increase in BoCell™ Assay sensitivity,BoCell™ model cell line; listed as 8-Br-cAMP,not

# — patent EP2800973B1 (priority 2012, dated 2013)
